Results: US20240358671A1, “COMPOSITIONS AND METHODS TO TREAT SKIN DISORDERS” (THE TRUSTEES OF INDIANA UNIVERSITY, priority 2021, published 2024)
Entries after “also recorded” stand apart in the source; their conditions may differ.

Columns and labels:
[1] = tested on: PPARδ; experiment: PPARδ gene expression in S-1-P treated human keratinocytes; format: cell-based; conditions: human keratinocytes treated with S-1-P, standard culture conditions
Description: Spingosine-1-phosphate methylates PPARδ promoter. Cutaneous ceramide is degraded to sphingosine by bacterial ceramidase. Sphingosine is phosphorylated to sphingosine-1 phosphate (S-1-P) which is a bioactive lipid and can epigenetically downregulate gene regulation. Thus, a plausible role of S-1-P in regulating PPARδ in our experimental systems was tested. In the porcine pre-clinical model of wound biofilm infection elevated levels of S-1-P was detected following PAwt, but not PAΔCer, infection. […] Under standard culture conditions when human keratinocytes were treated with the bioactive sphingolipid S-1-P, gene expression of PPARδ was blunted. To determine whether such downregulation of PPARδ was epigenetically regulated, CpG methylation of the PPARδ promoter was studied.

[2] = tested on: PPARδ promoter; experiment: Bisulfite sequencing of PPARδ promoter (CpG methylation); format: cell-based, human; conditions: HaCaT keratinocytes; S-1-P 5 μM, 48 hours
Description: The PCR products were gel extracted (GenElute Gel Extraction Kit, Sigma, cat #NA1111-1KT) and Sanger sequencing was done using ABI 3730 Genetic Analyzer. Analysis was done using Sequencher 5.4.5 (Gene Codes Corporation, MI). Results were confirmed by cloning the purified DNA into pGEM-T Easy Vector System II (Promega, cat #A1380), followed by sequencing.
Bisulfite conversion of DNA from HaCaT keratinocytes were transfected with Sphingosine-1-phosphate (5 μM, 48 hours) was performed using the Cells-to-CpG Bisulfite Conversion Kit (Thermo Fisher Scientific, part number: 4445555), as per manufacturer's protocol. The cells were lysed, and DNA was denatured using the denaturation reagent in a PCR tube at 50° C. for 10 min. Unmethylated cytosines were converted to uracil in the denatured DNA samples via treatment with conversion buffer containing bisulfite in a PCR reaction under following conditions: (1) 65° C. for 30 min, (2) 95° C. for 1.5 min, (3) 65° C. for 30 min, (4) 95° C. for 1.5 min, (5) 65° C. for 30 min, and (6) 4° C. up to 4 hr. This was followed by the removal of salts and desulfonation of the converted DNA in a binding column, a series of washing steps, and then elution of DNA. The converted DNA was stored at […] until further used.

[3] = tested on: DNA methyl transferases; experiment: DNA methyl transferase expression in S-1-P treated HK; format: cell-based, human
Excerpt: (§1) FIGS. 11A-11O illustrate additional experimental results. FIG. 11A: Vector map of PPARδ promoter luciferase reporter. FIGS. 11B-11C: PPARδ drives CerS3 expression. CerS3 expression in human keratinocytes (HK) treated with PPARδ agonist (GW501516, 1 μmol/ml) or antagonist (GSK0660, 1 μmol/ml) as measured by qPCR. Data presented as mean±SEM (n=5). FIGS. 11D-11F: Upregulation of DNA methyl transferases in S-1-P treated HK. Data presented as mean±SEM (n=8). FIGS. 11G-11J: Induction of histone deacetylases in S-1P treated HK. Data presented as mean±SEM (n=8). FIGS. 11K-11N) Other histone deacetylases in S-1P treated HK. […] Data presented as mean±SEM, (n=8). FIG. 11O: miR-106b expression in HK treated with S-1-P (5 μmol/ml). Data presented as mean±SEM (n=8).

[4] = tested on: histone deacetylases; experiment: Histone deacetylase expression in S-1-P treated HK; format: cell-based, human
Excerpt: as §1

[5] = tested on: DNMT3B; experiment: DNMT3B activity assay; format: cell-based; conditions: human keratinocytes; 5 μmol S-1-P, 48 h
Description: Human keratinocytes cells were treated with 5 μmol of Sphingosine-1-phosphate (Avanti) for 48 h. Cells were collected and DNMT3B activity was measured using EpiQuik DNMT3B Activity/Inhibitor Screening Assay Core Kit (EPIGENTEK) according to manufacturer's instructions and using recombinant DNMT3B protein, (ACTIVE MOTIF) as a positive control for the assay.

[6] = tested on: miR-106b; experiment: miR-106b expression in HK treated with S-1-P; format: cell-based, human; conditions: HK treated with S-1-P 5 μmol/ml
Excerpt: as §1

CCCCCCCCCCCCC/C=C/[C@@H](O)[C@@H](N)COP(=O)(O)O [S-1-P, sphingosine-1 phosphate]
gene expression of PPARδ [1]: blunted; also recorded: epigenetically silenced
PPARδ promoter methylation [2]: caused promoter methylation
DNA methyl transferases expression (FIGS. 11D-11F) [3]: Upregulation
histone deacetylases expression (FIGS. 11G-11J) [4]: Induction
other histone deacetylases expression (FIGS. 11K-11N) [4]: No significant changes
catalytic activity of DNA methyl transferase 3B (DNMT3B) [5]: augmented catalytic activity
miR-106b expression [6]: Induction
